Values of other authors, collected in patent publication US20200330542A1, “COMPOSITION FOR THE ACUTE AND CHRONIC TREATMENT OF CONSTIPATION” (NEILOS S.R.L., priority 2017, published 2020).

Settings: human, in vivo

glucomannan
tolerability: well tolerated without significant side effects
